Measured values from PubChem BioAssay (NCI).
Values joined by “and” are separate entries in the source; they are usually repeats but may differ in a detail not shown here. Equal values may be shown once.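 How tested: cells in 96-well plates exposed to compound for 48 hours at five concentrations. GI50 is the concentration that inhibits growth by half. Definition used: TGI = concentration required for complete inhibition of growth.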

Legend:
Assay in all cases: DTP human tumour cell line panel, 48 h
LOX IMVI melanoma = system: LOX IMVI melanoma
T-47D breast = system: T-47D breast
HOP-92 NSCLC = system: HOP-92 NSCLC
MALME-3M melanoma = system: MALME-3M melanoma
HCT-116 colon = system: HCT-116 colon
MDA-N = system: MDA-N
SNB-75 CNS = system: SNB-75 CNS
SR leukemia = system: SR leukemia
UO-31 renal = system: UO-31 renal
EKVX NSCLC = system: EKVX NSCLC
SK-MEL-28 melanoma = system: SK-MEL-28 melanoma

Structure (SMILES) | TGI (LOX IMVI melanoma) | TGI (T-47D breast) [µM] | TGI (HOP-92 NSCLC) [µM] | TGI (MALME-3M melanoma) | TGI (HCT-116 colon) | TGI (MDA-N) | TGI (SNB-75 CNS) [µM] | TGI (SR leukemia) [µM] | TGI (UO-31 renal) [µM] | TGI (EKVX NSCLC) | TGI (SK-MEL-28 melanoma) [µM] | GI50 (LOX IMVI melanoma) [µM] | GI50 (T-47D breast) [µM] | GI50 (MALME-3M melanoma) [µM] | GI50 (HCT-116 colon) [µM] | GI50 (MDA-N) [µM] | GI50 (EKVX NSCLC) [µM] | GI50 (SK-MEL-28 melanoma) [µM]
Fc1ccc(OCc2ccc3nc(-c4ccccc4)c(Cl)nc3c2)cc1 | > 100 µM | > 100 | 50.1 | 35.9 µM | > 100 µM | > 100 µM | 42.8 | 40.8 | > 100 | > 100 µM | > 100 |  |  |  |  |  |  | 
CC(Br)CN(CC(C)Br)c1ccc2c(c1)Cc1ccccc1-2 (centres undefined) | 23.2 µM | 29.6 | 20.9 | 24.9 µM | 23.8 µM | 30.7 µM | 25.2 | 14.9 | 24.9 | 30.3 µM | 37.3 |  |  |  |  |  |  | 
CC(=O)Nc1ccc2c(c1)nc1c3ccccc3ccn21 | > 100 µM | > 100 | > 100 | > 100 µM | > 100 µM | > 100 µM | > 100 | > 100 | > 100 | > 100 µM | > 100 |  |  |  |  |  |  | 
C[N+]1(CCCCN2c3ccccc3Sc3cc(N=[N+]=[N-])ccc32)CCN(C(=O)CCNC(=O)Cc2ccc(C(=O)c3ccccc3)cc2)CC1 | > 78.1 µM | > 76.4 | 40.5 | 70.8 µM | > 75.4 µM | > 71.9 µM | 43.3 | 65.5 | 39 | > 81.5 µM | 46.4 |  |  |  |  |  |  | 
OC(CCN1CCN(CCOC(c2ccc(F)cc2)c2ccc(F)cc2)CC1)c1ccc(Br)cc1 (centres undefined) | 4.07 µM | 13.7 | 13.7 | 4.39 µM | 7.84 µM | 6.93 µM | 23.7 | 4.13 | 4.67 | 17.7 µM | 7.9 |  |  |  |  |  |  | 
Cc1nc2ccccc2n1Cc1ccc(NC(=S)Nc2ccccc2)cc1 | > 100 µM | > 100 | > 100 | > 100 µM | > 100 µM | > 100 µM | > 100 | > 100 | > 100 | > 100 µM | > 100 |  |  |  |  |  |  | 
O=C1C=CC(=O)c2c(O)c(N3CCN(c4ncccn4)CC3)c(Cl)c(O)c21 | 3.55 µM | 5.7 | 4.72 | 3.63 µM | 3.14 µM | 3.75 µM | 21.8 | 37.8 | 4.03 | 24.8 µM | 4.57 |  |  |  |  |  |  | 
O=C1c2cccnc2C(=O)c2c1nc1ccccc1c2-c1ccc2c3c(nc4ccccc42)C(=O)c2cccnc2-c13 | 9.12 µM | 19.4 | 30.5 | 4.54 µM | 1.73 µM | 8.82 µM | 8.28 | 0.34 | 4.62 | 6.69 µM | 13.5 |  |  |  |  |  |  | 
O=C(CCl)Nc1ccc(C(=O)N/N=C/c2ccc(Cl)cc2)cc1 | 3.5 µM and 2.91 µM |  | 4.53 | 3.63 µM and 14.2 µM | 3.18 µM and 3.7 µM | 3.69 µM and 24.3 µM | 30.5 | 3.93 | 10.6 | 4.02 µM and 38.5 µM | 16.8 | 1.72 | 0.195 | 3.79 | 1.57 | 11 | 20 | 3.59
Cc1ccc2nc(Nc3ccccc3C)c(Nc3ccccc3C)nc2c1 | 39.5 µM | > 100 | 54.1 | 48.8 µM | 40.2 µM | 67.1 µM | > 96.6 | > 100 | 60.8 | > 100 µM | > 100 |  |  |  |  |  |  | 
CC(C)(C)C#CI1OC(=O)c2ccccc21 | 3.89 µM | 14.7 | 5.78 | 9.24 µM | 6.82 µM | 23.4 µM | 16 | 3.74 | 14.6 | 17.5 µM | 17.8 |  |  |  |  |  |  | 
COc1ccc2c(c1)-c1nc(=S)n(CCN(C)C)c3ccc([N+](=O)[O-])c(c13)N2 | 2.29 µM | 12.5 | 27.7 | 2.49 µM | 1.56 µM | 2.19 µM | 2.7 | 2.07 | 13.1 | 7.29 µM | 2.88 |  |  |  |  |  |  | 
Brc1ccc(/C(N=N/C(=N\Sc2ccccc2)c2ccc(Br)cc2)=N/Sc2ccccc2)cc1 | > 100 µM | > 100 | > 100 | > 100 µM | > 100 µM | > 100 µM | > 100 | > 100 | > 100 | > 100 µM | > 100 |  |  |  |  |  |  | 
